Data taken from ChEMBL document CHEMBL1121707, “Synthesis of 2'-deoxy-L-fucopyranosylcarminomycinone and -epsilon-pyrromycinone as well as 2'-deoxy-D-erythro-pentopyranosyldaunomycinone, -carminomycinone, and -epsilon-pyrromycinone” (1981).

How the values were obtained:
[1] = test system: L1210; assay: Tested for survivors on day 5 after administration at 0.8 mg/kg intraperitoneally in mice on day 1 in experiment 1; format: functional, Mus musculus; details: route intraperitoneal
[2] = test system: L1210; assay: Tested for survivors on day 5 after administration at 0.4 mg/kg intraperitoneally in mice on day 1 in experiment 1; format: functional, Mus musculus; details: route intraperitoneal
[3] = test system: P388; assay: Median survival time of treated to that of control after administration on every 4th day at 50 mg/kg intraperitoneally in BDF1 mice; format: functional, Mus musculus; details: route intraperitoneal
[4] = test system: Bacillus subtilis; assay: Tested for antibacterial effect against Bacillus subtilis-8 at dose 6.25 ug/mL; format: functional
[5] = test system: Bacillus subtilis; assay: Tested for antibacterial effect against Bacillus subtilis-8 at dose 25 ug/mL; format: functional
[6] = test system: L1210; assay: Median survival time of treated to that of control after administration at 0.8 mg/kg intraperitoneally in BDF1 mice on day 1 in experiment 1; format: functional, Mus musculus; details: route intraperitoneal
[7] = test system: L1210; assay: Median survival time of treated to that of control after administration at 12.8 mg/kg intraperitoneally in BDF1 mice on day 1 in experiment 1; format: functional, Mus musculus; details: route intraperitoneal
[8] = test system: P388; assay: Tested for survivors on day 5 after administration on every 4th day at 25 mg/kg intraperitoneally in mice; format: functional, Mus musculus; details: route intraperitoneal
[9] = test system: Bacillus subtilis; assay: Tested for antibacterial effect against Bacillus subtilis-8 at dose 50 ug/mL; format: functional
[10] = test system: P388; assay: Tested for survivors on day 5 after administration at 12.5 mg/kg intraperitoneally in mice on day 1 in experiment 2; format: functional, Mus musculus; details: route intraperitoneal
[11] = test system: L1210; assay: Average weight change after administration at 3.2 mg/kg intraperitoneally in mice on day 1 in experiment 1; format: functional, Mus musculus; details: route intraperitoneal
[12] = test system: L1210; assay: Average weight change after administration at 12.8 mg/kg intraperitoneally in mice on day 1 in experiment 1; format: functional, Mus musculus; details: route intraperitoneal
[13] = test system: P388; assay: Tested for survivors on day 5 after administration on every 4th day at 3.13 mg/kg intraperitoneally in mice; format: functional, Mus musculus; details: route intraperitoneal
[14] = test system: P388; assay: Average weight change after administration on every 4th day at 6.25 mg/kg intraperitoneally in mice; format: functional, Mus musculus; details: route intraperitoneal
[15] = test system: L1210; assay: Tested for survivors on day 5 after administration at 12.8 mg/kg intraperitoneally in mice on day 1 in experiment 1; format: functional, Mus musculus; details: route intraperitoneal
[16] = test system: P388; assay: Tested for survivors on day 5 after administration on every 4th day at 50 mg/kg intraperitoneally in mice; format: functional, Mus musculus; details: route intraperitoneal
[17] = test system: L1210; assay: Median survival time of treated to that of control after administration at 0.4 mg/kg intraperitoneally in BDF1 mice on day 1 in experiment 1; format: functional, Mus musculus; details: route intraperitoneal
[18] = test system: L1210; assay: Average weight change after administration at 1.6 mg/kg intraperitoneally in mice on day 1 in experiment 1; format: functional, Mus musculus; details: route intraperitoneal
[19] = test system: L1210; assay: Median survival time of treated to that of control after administration at 1.6 mg/kg intraperitoneally in BDF1 mice on day 1 in experiment 1; format: functional, Mus musculus; details: route intraperitoneal
[20] = test system: P388; assay: Average weight change after administration on every 4th day at 12.5 mg/kg intraperitoneally in mice; format: functional, Mus musculus; details: route intraperitoneal
[21] = test system: L1210; assay: Tested for survivors on day 5 after administration at 6.4 mg/kg intraperitoneally in mice on day 1 in experiment 1; format: functional, Mus musculus; details: route intraperitoneal
[22] = test system: P388; assay: Average weight change after administration on every 4th day at 25 mg/kg intraperitoneally in mice; format: functional, Mus musculus; details: route intraperitoneal
[23] = test system: P388; assay: Median survival time of treated to that of control after administration on every 4th day at 6.25 mg/kg intraperitoneally in BDF1 mice; format: functional, Mus musculus; details: route intraperitoneal
[24] = test system: P388; assay: Median survival time of treated to that of control after administration on every 4th day at 25 mg/kg intraperitoneally in BDF1 mice; format: functional, Mus musculus; details: route intraperitoneal
[25] = test system: L1210; assay: Median survival time of treated to that of control after administration at 3.2 mg/kg intraperitoneally in BDF1 mice on day 1 in experiment 1; format: functional, Mus musculus; details: route intraperitoneal
[26] = test system: L1210; assay: Tested for survivors on day 5 after administration at 3.2 mg/kg intraperitoneally in mice on day 1 in experiment 1; format: functional, Mus musculus; details: route intraperitoneal
[27] = test system: P388; assay: Median survival time of treated to that of control after administration at 3.13 mg/kg intraperitoneally in BDF1 mice; format: functional, Mus musculus; details: route intraperitoneal
[28] = test system: P388; assay: Average weight change after administration on every 4th day at 50 mg/kg intraperitoneally in mice; format: functional, Mus musculus; details: route intraperitoneal
[29] = test system: L1210; assay: Average weight change after administration at 6.4 mg/kg intraperitoneally in mice on day 1 in experiment 1; format: functional, Mus musculus; details: route intraperitoneal
[30] = test system: L1210; assay: Median survival time of treated to that of control after administration at 6.4 mg/kg intraperitoneally in BDF1 mice on day 1 in experiment 1; format: functional, Mus musculus; details: route intraperitoneal
[31] = test system: L1210; assay: Average weight change after administration at 0.8 mg/kg intraperitoneally in mice on day 1 in experiment 1; format: functional, Mus musculus; details: route intraperitoneal
[32] = test system: P388; assay: Median survival time of treated to that of control after administration on every 4th day at 12.5 mg/kg intraperitoneally in BDF1 mice; format: functional, Mus musculus; details: route intraperitoneal
[33] = test system: L1210; assay: Average weight change after administration at 0.4 mg/kg intraperitoneally in mice on day 1 in experiment 1; format: functional, Mus musculus; details: route intraperitoneal
[34] = test system: P388; assay: Tested for survivors on day 5 after administration on every 4th day at 6.25 mg/kg intraperitoneally in mice; format: functional, Mus musculus; details: route intraperitoneal
[35] = test system: L1210; assay: Tested for survivors on day 5 after administration at 1.6 mg/kg intraperitoneally in mice on day 1 in experiment 1; format: functional, Mus musculus; details: route intraperitoneal
[36] = test system: Bacillus subtilis; assay: Tested for antibacterial effect against Bacillus subtilis-8 at dose 12.5 ug/mL; format: functional
[37] = test system: P388; assay: Average weight change after administration at 3.13 mg/kg intraperitoneally in mice; format: functional, Mus musculus; details: route intraperitoneal
[38] = test system: Bacillus subtilis; assay: Tested for antibiotic activity against Bacillus subtilis-ATTCC 6633 at dose 12.5 ug/mL via plate assay; format: functional

`COc1cccc2c1C(=O)c1c(O)c3c(c(O)c1C2=O)C[C@@](O)(C(C)=O)C[C@@H]3O[C@H]1C[C@H](O)[C@H](O)CO1` gave a Survivors [1] of 6, a Survivors [2] of 6 and a T/C [3] of 110%. It also gave an Inhibition zone [4] of 10 mm, an Inhibition zone [5] of 15.8 mm and a T/C [6] of 100%. For the same molecule, the T/C [7] was 107%, the Survivors [8] was 6 and the Inhibition zone [9] was 18.8 mm. The Survivors [10] was 6, the Average weight change [11] was 0.2 and the Average weight change [12] was 2.3. It also gave a Survivors [13] of 6, an Average weight change [14] of -1.2 and a Survivors [15] of 6. It also gave a Survivors [16] of 6, a T/C [17] of 100% and an Average weight change [18] of 2.6. It also gave a T/C [19] of 86%, an Average weight change [20] of -1.3 and a Survivors [21] of 6. It also gave an Average weight change [22] of -0.5, a T/C [23] of 100% and a T/C [24] of 110%. It also gave a T/C [25] of 100%, a Survivors [26] of 6 and a T/C [27] of 100%. For the same molecule, the Average weight change [28] was 0.2, the Average weight change [29] was 2.4 and the T/C [30] was 93%. It also gave an Average weight change [31] of 1.8, a T/C [32] of 112% and an Average weight change [33] of 1.5. The Survivors [34] was 6, the Survivors [35] was 6 and the Inhibition zone [36] was 12.5 mm. For the same molecule, the Average weight change [37] was -2.

Molecule `CC(=O)[C@]1(O)Cc2c(O)c3c(c(O)c2C(O)C1)C(=O)c1c(O)cccc1C3=O` (stereo partly drawn) [CARMINOMYCINONE] has an Inhibition zone [38] of 20.2 mm.
